According to ChEMBL document CHEMBL1201862, “PubChem BioAssay data set” (2004):
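Method: 48-hour compound exposure of cells in 96-well plates, five concentrations, linear interpolation of endpoints. The concentration for 50% growth inhibition is given as GI50.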 The source made the active and inactive calls. Cut-off read from the data, not from the text of the source: active = GI50 up to about 1.1 µM and inactive = higher.

How the values were obtained:
Experiment in all cases: growth of human tumour cells (NCI), 48 h
A498 = tested on: A498
BT-549 = tested on: BT-549
CAKI-1 = tested on: CAKI-1
COLO 205 = tested on: COLO 205
HCT-116 = tested on: HCT-116
HL-60 = tested on: HL-60
HOP-92 = tested on: HOP-92
MDA-MB-435 = tested on: MDA-MB-435
Malme-3M = tested on: Malme-3M
NCI-H23 = tested on: NCI-H23
OVCAR-3 = tested on: OVCAR-3
OVCAR-5 = tested on: OVCAR-5
SK-MEL-2 = tested on: SK-MEL-2
SK-MEL-5 = tested on: SK-MEL-5
SK-OV-3 = tested on: SK-OV-3
SW-620 = tested on: SW-620
UACC-62 = tested on: UACC-62
SF-539 = tested on: SF-539
NCI-H460 = tested on: NCI-H460

Measured: GI50

CO/C(N)=C(C#N)/N=C/c1ccco1
inactive: A498 > 100 µM | BT-549 > 100 µM | CAKI-1 > 100 µM | COLO 205 > 100 µM | HCT-116 > 100 µM | HL-60 > 100 µM | HOP-92 > 100 µM | MDA-MB-435 > 100 µM | Malme-3M > 100 µM | NCI-H23 > 100 µM | OVCAR-3 > 100 µM | OVCAR-5 > 100 µM | SK-MEL-2 > 100 µM | SK-MEL-5 > 100 µM | SK-OV-3 > 100 µM | SW-620 > 100 µM | UACC-62 > 100 µM

O=c1[nH]nc(Cc2ccccc2)n1/N=C/c1c(O)ccc2ccccc12
inactive: A498 18.5 µM | BT-549 82.4 µM | CAKI-1 28.2 µM | COLO 205 47.4 µM | HCT-116 20.2 µM | HOP-92 19.2 µM | MDA-MB-435 29.2 µM | Malme-3M 20.9 µM | NCI-H23 27.2 µM | OVCAR-3 17.1 µM | SF-539 19.8 µM | SK-MEL-2 38.1 µM | SK-MEL-5 18.6 µM | SW-620 43.5 µM | UACC-62 29.2 µM

COc1ccc2cc(CNCCCCCCCCNCc3ccc4cc(OC)ccc4c3)ccc2c1
inactive: A498 6.38 µM | BT-549 6.67 µM | CAKI-1 6.67 µM | COLO 205 2.48 µM | HCT-116 4.42 µM | HL-60 1.58 µM | HOP-92 5.32 µM | MDA-MB-435 4.94 µM | Malme-3M 6.85 µM | NCI-H23 13.8 µM | NCI-H460 2.07 µM | OVCAR-3 6.61 µM | OVCAR-5 6.9 µM | SK-MEL-2 4.71 µM | SK-MEL-5 11.7 µM | SW-620 1.97 µM | UACC-62 2.01 µM

O=P(O)(CN1CCN(CP(=O)(O)c2ccccc2)CCN(CP(=O)(O)c2ccccc2)CC1)c1ccccc1
inactive: A498 9.16 µM | BT-549 > 100 µM | CAKI-1 45.8 µM | COLO 205 69.3 µM | HCT-116 36.8 µM | HL-60 > 100 µM | MDA-MB-435 93.1 µM | Malme-3M 56.2 µM | NCI-H23 > 100 µM | NCI-H460 36 µM | OVCAR-3 56.6 µM | OVCAR-5 > 100 µM | SF-539 67.1 µM | SK-MEL-5 69.3 µM | SK-OV-3 > 100 µM | SW-620 45.6 µM | UACC-62 > 10 µM

Clc1ccc(OCc2nnc3sc(-c4ccc(-c5ccc(Cl)cc5Cl)o4)nn23)cc1
inactive: A498 > 100 µM | BT-549 > 100 µM | CAKI-1 > 100 µM | COLO 205 > 100 µM | HCT-116 > 100 µM | HL-60 > 100 µM | HOP-92 36.9 µM | MDA-MB-435 > 100 µM | Malme-3M > 100 µM | NCI-H23 > 100 µM | NCI-H460 > 100 µM | OVCAR-3 > 100 µM | OVCAR-5 > 100 µM | SK-MEL-2 50.6 µM | SK-MEL-5 > 100 µM | SK-OV-3 > 100 µM | SW-620 > 100 µM

COc1cc([C@@H]2C3C(=O)c4ccccc4C3[C@@H](c3cc(OC)c(OC)c(OC)c3)C23Cc2ccccc2C3=O)cc(OC)c1OC (stereo not given in full)
inactive: A498 > 100 µM | BT-549 > 100 µM | CAKI-1 2.75 µM | COLO 205 > 100 µM | HCT-116 > 100 µM | HL-60 > 100 µM | HOP-92 1.87 µM | MDA-MB-435 > 100 µM | Malme-3M > 100 µM | NCI-H23 > 100 µM | NCI-H460 > 100 µM | OVCAR-3 > 100 µM | OVCAR-5 > 100 µM | SF-539 > 100 µM | SK-MEL-5 > 100 µM | SK-OV-3 > 100 µM | SW-620 > 100 µM
